# According to paper PMC5218480 (PLoS ONE, 2017):
# System: MV-4-11 cells
# Experiment: Gene expression microarray analysis (Affymetrix PrimeView) and GSEA
# Assay type: cell-based, human
# Set-up: RFU PODN (11730768_x_at) / Fold change /veh PODN (11730768_x_at) / RFU LINC00158 (11744669_a_at) / Fold change /veh LINC00158 (11744669_a_at) / RFU DUSP10 (11751237_a_at) / Fold change /veh DUSP10 (11751237_a_at) / RFU ID3 (11757404_x_at) / Fold change /veh ID3 (11757404_x_at) / RFU PLEKHG5 (11737974_s_at) / Fold change /veh PLEKHG5 (11737974_s_at) / RFU LRRC4B (11730491_at) / Fold change /veh LRRC4B (11730491_at) / RFU GIMAP4 (11747438_a_at) / Fold change /veh GIMAP4 (11747438_a_at) / RFU KRT8 (11758183_x_at) / Fold change /veh KRT8 (11758183_x_at) / RFU CNN1 (11734310_a_at) / Fold change /veh CNN1 (11734310_a_at) / RFU VPS37D (11726825_at) / Fold change /veh VPS37D (11726825_at) / RFU C10orf10 (11716522_x_at) / Fold change /veh C10orf10 (11716522_x_at) / RFU KIR2DL2 /// KIR2DL4 /// KIR2DL5A /// KIR2DL5B /// KIR2DS1 /// KIR2DS2 /// KIR2DS3 /// KIR2DS4 /// KIR3DL3 /// KIR3DL3 /// KIR3DS1 (11738374_at) / Fold change /veh KIR2DL2 /// KIR2DL4 /// KIR2DL5A /// KIR2DL5B /// KIR2DS1 /// KIR2DS2 /// KIR2DS3 /// KIR2DS4 /// KIR3DL3 /// KIR3DL3 /// KIR3DS1 (11738374_at) / RFU C1QL1 (11718748_at) / Fold change /veh C1QL1 (11718748_at) / RFU TMPRSS4 (11747572_a_at) / Fold change /veh TMPRSS4 (11747572_a_at) / RFU HAMP (11756126_x_at) / Fold change /veh HAMP (11756126_x_at) / RFU RNFT2 (11725882_a_at) / Fold change /veh RNFT2 (11725882_a_at) / RFU NR4A2 (11747474_a_at) / Fold change /veh NR4A2 (11747474_a_at) / RFU ABCC12 (11746883_a_at) / Fold change /veh ABCC12 (11746883_a_at) / RFU TMEM136 (11760407_x_at) / Fold change /veh TMEM136 (11760407_x_at) / RFU CLDN22 /// WWC2 (11732394_at) / Fold change /veh CLDN22 /// WWC2 (11732394_at) / RFU HLA-DPB1 (11760878_x_at) / Fold change /veh HLA-DPB1 (11760878_x_at) / RFU SPINT1 (11716480_a_at) / Fold change /veh SPINT1 (11716480_a_at) / RFU GAP43 (11754022_s_at) / Fold change /veh GAP43 (11754022_s_at) / RFU A4GNT (11735810_at) / Fold change /veh A4GNT (11735810_at) / RFU PRB3 (11715151_x_at) / Fold change /veh PRB3 (11715151_x_at) / RFU TUBB4B (11761932_at) / Fold change /veh TUBB4B (11761932_at) / RFU CAPN14 (11732068_a_at) / Fold change /veh CAPN14 (11732068_a_at) / RFU TMCC2 (11721928_a_at) / Fold change /veh TMCC2 (11721928_a_at) / RFU IRGQ (11745062_a_at) / Fold change /veh IRGQ (11745062_a_at) / RFU FAM174B (11720279_a_at) / Fold change /veh FAM174B (11720279_a_at) / RFU TMPRSS4 (11748680_a_at) / Fold change /veh TMPRSS4 (11748680_a_at) / RFU FAM212B (11763350_a_at) / Fold change /veh FAM212B (11763350_a_at) / RFU PLEKHG5 (11743358_a_at) / Fold change /veh PLEKHG5 (11743358_a_at) / RFU ZSCAN30 (11745921_a_at) / Fold change /veh ZSCAN30 (11745921_a_at) / RFU CMKLR1 (11741424_a_at) / Fold change /veh CMKLR1 (11741424_a_at) / RFU LOC101060620 /// MAPK8IP1 (11723275_at) / Fold change /veh LOC101060620 /// MAPK8IP1 (11723275_at) / RFU SPTSSB (11747773_x_at) / Fold change /veh SPTSSB (11747773_x_at) / RFU PRSS12 (11739890_at) / Fold change /veh PRSS12 (11739890_at) / RFU BIN1 (11741810_x_at) / Fold change /veh BIN1 (11741810_x_at) / RFU WNT11 (11732464_a_at) / Fold change /veh WNT11 (11732464_a_at) / RFU C10orf10 (11716521_a_at) / Fold change /veh C10orf10 (11716521_a_at) / RFU C5orf56 (11738089_at) / Fold change /veh C5orf56 (11738089_at) / RFU CYB561 (11721691_x_at) / Fold change /veh CYB561 (11721691_x_at) / RFU ANKRD19P (11752326_a_at) / Fold change /veh ANKRD19P (11752326_a_at) / RFU OR2T12 /// OR2T33 /// OR2T8 (11738714_s_at) / Fold change /veh OR2T12 /// OR2T33 /// OR2T8 (11738714_s_at) / RFU VCAN (11748164_a_at) / Fold change /veh VCAN (11748164_a_at) / RFU JSRP1 (11732532_at) / Fold change /veh JSRP1 (11732532_at) / RFU KRTAP10-11 (11738290_x_at) / Fold change /veh KRTAP10-11 (11738290_x_at) / RFU MYO3A (11730013_a_at) / Fold change /veh MYO3A (11730013_a_at) / RFU EBF3 (11725865_a_at) / Fold change /veh EBF3 (11725865_a_at) / RFU CAMK2N1 (11719241_x_at) / Fold change /veh CAMK2N1 (11719241_x_at) / RFU C5orf56 (11738088_a_at) / Fold change /veh C5orf56 (11738088_a_at) / RFU OLFML3 (11715873_a_at) / Fold change /veh OLFML3 (11715873_a_at) / RFU LOC100653217 /// NTM (11731650_a_at) / Fold change /veh LOC100653217 /// NTM (11731650_a_at) / RFU MAPK11 (11762145_a_at) / Fold change /veh MAPK11 (11762145_a_at) / RFU FIZ1 (11724087_x_at) / Fold change /veh FIZ1 (11724087_x_at) / RFU OASL (11726364_x_at) / Fold change /veh OASL (11726364_x_at) / RFU SOX15 (11748057_x_at) / Fold change /veh SOX15 (11748057_x_at) / RFU CD79A (11719716_a_at) / Fold change /veh CD79A (11719716_a_at) / RFU HIST1H1D (11736915_at) / Fold change /veh HIST1H1D (11736915_at) / RFU CASKIN2 (11723855_a_at) / Fold change /veh CASKIN2 (11723855_a_at) / RFU LOC730098 (11760151_x_at) / Fold change /veh LOC730098 (11760151_x_at) / RFU OR4N2 (11742367_at) / Fold change /veh OR4N2 (11742367_at) / RFU PRRT2 (11749266_a_at) / Fold change /veh PRRT2 (11749266_a_at) / RFU SNX32 (11753110_a_at) / Fold change /veh SNX32 (11753110_a_at) / RFU CDHR5 (11726645_a_at) / Fold change /veh CDHR5 (11726645_a_at) / RFU RCAN1 (11760418_a_at) / Fold change /veh RCAN1 (11760418_a_at) / RFU FAM167A (11723789_a_at) / Fold change /veh FAM167A (11723789_a_at) / RFU FAM26E (11764081_at) / Fold change /veh FAM26E (11764081_at) / RFU ISYNA1 (11749810_s_at) / Fold change /veh ISYNA1 (11749810_s_at) / RFU ACY1 (11761880_at) / Fold change /veh ACY1 (11761880_at) / RFU 11764098_at / Fold change /veh 11764098_at / RFU SAMD14 (11745864_x_at) / Fold change /veh SAMD14 (11745864_x_at) / RFU NPB (11741838_a_at) / Fold change /veh NPB (11741838_a_at) / RFU TMPRSS6 (11731388_a_at) / Fold change /veh TMPRSS6 (11731388_a_at) / RFU KRTAP10-2 (11738614_at) / Fold change /veh KRTAP10-2 (11738614_at) / RFU ARHGAP8 /// PRR5-ARHGAP8 (11727945_x_at) / Fold change /veh ARHGAP8 /// PRR5-ARHGAP8 (11727945_x_at) / RFU KRTAP5-7 /// NADSYN1 (11734609_at) / Fold change /veh KRTAP5-7 /// NADSYN1 (11734609_at) / RFU RASL12 (11751679_a_at) / Fold change /veh RASL12 (11751679_a_at) / RFU CDKN2B (11736163_a_at) / Fold change /veh CDKN2B (11736163_a_at) / RFU PRF1 (11729649_at) / Fold change /veh PRF1 (11729649_at) / RFU, ZNF638 /// ZNF638-IT1 / Fold change vs veh, ZNF638 /// ZNF638-IT1 / RFU, PANK3 / Fold change vs veh, PANK3 / RFU, SH3YL1 / Fold change vs veh, SH3YL1 / RFU, ZEB2 / Fold change vs veh, ZEB2 / RFU, NRIP1 / Fold change vs veh, NRIP1 / RFU, PTTG1IP / Fold change vs veh, PTTG1IP / RFU, CAPN2 / Fold change vs veh, CAPN2 / RFU, MED14 / Fold change vs veh, MED14 / RFU, SNORA58 / Fold change vs veh, SNORA58 / RFU, C1orf63 / Fold change vs veh, C1orf63 / RFU, LRRFIP1 / Fold change vs veh, LRRFIP1 / RFU, NDUFAF7 / Fold change vs veh, NDUFAF7 / RFU, SLC12A2 / Fold change vs veh, SLC12A2 / RFU, IBTK / Fold change vs veh, IBTK / RFU, ESF1 / Fold change vs veh, ESF1 / Fold change vs veh, TMEM50B / RFU, TAOK1 / Fold change vs veh, TAOK1 / RFU, ACBD3 / Fold change vs veh, ACBD3 / RFU, TMA16 / Fold change vs veh, TMA16 / RFU, RWDD3 / Fold change vs veh, RWDD3 / RFU, BCAT1 / Fold change vs veh, BCAT1 / RFU, EDEM3 / Fold change vs veh, EDEM3 / RFU, TMEM33 / Fold change vs veh, TMEM33 / RFU, WDR75 / Fold change vs veh, WDR75 / RFU, AHCTF1 / Fold change vs veh, AHCTF1 / RFU, TFRC / Fold change vs veh, TFRC / RFU, ZDHHC17 / Fold change vs veh, ZDHHC17 / RFU, NOM1 / Fold change vs veh, NOM1 / RFU, ARL8B / Fold change vs veh, ARL8B / RFU, ZBTB11 / Fold change vs veh, ZBTB11 / RFU, TAMM41 / Fold change vs veh, TAMM41 / RFU, KIAA1704 /// LOC100996395 / Fold change vs veh, KIAA1704 /// LOC100996395 / RFU, ING1 / Fold change vs veh, ING1 / RFU, TRMT61B / Fold change vs veh, TRMT61B / RFU, FUBP3 / Fold change vs veh, FUBP3 / RFU, TP53 / Fold change vs veh, TP53 / RFU, TNKS2 / Fold change vs veh, TNKS2 / RFU, ZFP14 / Fold change vs veh, ZFP14 / RFU, ACTR2 / Fold change vs veh, ACTR2 / RFU, PPP3R1 / Fold change vs veh, PPP3R1 / RFU, PIK3R1 / Fold change vs veh, PIK3R1 / RFU, HNRNPA1 / Fold change vs veh, HNRNPA1 / RFU, RNF170 / Fold change vs veh, RNF170 / RFU, ZNF28 / Fold change vs veh, ZNF28 / RFU, RNGTT / Fold change vs veh, RNGTT / RFU, OGT / Fold change vs veh, OGT / RFU, BRD1 / Fold change vs veh, BRD1 / RFU, MARS / Fold change vs veh, MARS / RFU, ZNF655 / Fold change vs veh, ZNF655 / RFU, FAHD1 / Fold change vs veh, FAHD1 / RFU, BDP1 / Fold change vs veh, BDP1 / RFU, LRRCC1 / Fold change vs veh, LRRCC1 / RFU, ARID1A / Fold change vs veh, ARID1A / RFU, ZNF146 / Fold change vs veh, ZNF146 / RFU, ZNF330 / Fold change vs veh, ZNF330 / RFU, GPN3 / Fold change vs veh, GPN3 / RFU, C9orf123 / Fold change vs veh, C9orf123 / RFU, N4BP2L2 / Fold change vs veh, N4BP2L2 / RFU, ARFIP1 / Fold change vs veh, ARFIP1 / RFU, FAM179B / Fold change vs veh, FAM179B / RFU, BCL10 / Fold change vs veh, BCL10 / RFU, UHRF1BP1L / Fold change vs veh, UHRF1BP1L / RFU, BET1 / Fold change vs veh, BET1 / RFU, CNOT2 / Fold change vs veh, CNOT2 / RFU, ZNF268 / Fold change vs veh, ZNF268 / Fold change vs veh, ZNF507 / RFU, DGCR2 / Fold change vs veh, DGCR2 / RFU, WDSUB1 / Fold change vs veh, WDSUB1 / Fold change vs veh, HSP90B1 /// MIR3652 / RFU, ADSS / Fold change vs veh, ADSS / RFU, GK / Fold change vs veh, GK / RFU, ZNF148 / Fold change vs veh, ZNF148 / RFU, TAF9 / Fold change vs veh, TAF9 / RFU, SLC1A5 / Fold change vs veh, SLC1A5 / RFU, SLMO2 / Fold change vs veh, SLMO2 / RFU, ABCC4 / Fold change vs veh, ABCC4 / RFU, LOC101060439 /// RAP1B / Fold change vs veh, LOC101060439 /// RAP1B / RFU, RFX7 / Fold change vs veh, RFX7 / RFU, GTPBP10 / Fold change vs veh, GTPBP10 / RFU, CNEP1R1 / Fold change vs veh, CNEP1R1 / RFU, BIVM-ERCC5 /// ERCC5 / Fold change vs veh, BIVM-ERCC5 /// ERCC5 / RFU, ILF3 / Fold change vs veh, ILF3 / RFU 11762660_at / Fold change /veh 11762660_at / RFU VCAN (11757783_s_at) / Fold change /veh VCAN (11757783_s_at) / RFU DDX43 (11728927_at) / Fold change /veh DDX43 (11728927_at) / RFU KRT8 (11758188_x_at) / Fold change /veh KRT8 (11758188_x_at) / RFU NKD1 (11759106_at) / Fold change /veh NKD1 (11759106_at) / RFU SRD5A1 (11742802_a_at) / Fold change /veh SRD5A1 (11742802_a_at) / RFU TPSAB1 /// TPSB2 (11721975_s_at) / Fold change /veh TPSAB1 /// TPSB2 (11721975_s_at) / RFU GSTM3 (11746129_a_at) / Fold change /veh GSTM3 (11746129_a_at) / RFU IL23R (11737362_x_at) / Fold change /veh IL23R (11737362_x_at) / RFU TMEM51 (11727254_a_at) / Fold change /veh TMEM51 (11727254_a_at) / RFU PIWIL2 (11732686_x_at) / Fold change /veh PIWIL2 (11732686_x_at) / RFU ORM1 (11744905_x_at) / Fold change /veh ORM1 (11744905_x_at) / RFU CCDC152 (11743942_at) / Fold change /veh CCDC152 (11743942_at) / RFU ECM1 (11717891_a_at) / Fold change /veh ECM1 (11717891_a_at) / RFU IL23R (11748794_a_at) / Fold change /veh IL23R (11748794_a_at) / RFU TNFAIP8L3 (11732012_x_at) / Fold change /veh TNFAIP8L3 (11732012_x_at) / RFU MBOAT4 (11741988_at) / Fold change /veh MBOAT4 (11741988_at) / RFU 11764193_at / Fold change /veh 11764193_at / RFU TMEM53 (11763286_at) / Fold change /veh TMEM53 (11763286_at) / RFU MAGEB2 (11727129_at) / Fold change /veh MAGEB2 (11727129_at) / RFU TMEM200A (11744735_a_at) / Fold change /veh TMEM200A (11744735_a_at) / RFU CCDC152 (11751479_a_at) / Fold change /veh CCDC152 (11751479_a_at) / RFU FAM211A (11726209_a_at) / Fold change /veh FAM211A (11726209_a_at) / RFU RGS16 (11746705_a_at) / Fold change /veh RGS16 (11746705_a_at) / RFU VCAN (11755009_s_at) / Fold change /veh VCAN (11755009_s_at) / RFU RHOB (11743442_s_at) / Fold change /veh RHOB (11743442_s_at) / RFU RGS16 (11720943_a_at) / Fold change /veh RGS16 (11720943_a_at) / RFU RGS16 (11720944_at) / Fold change /veh RGS16 (11720944_at) / RFU, VPS4B / Fold change vs veh, VPS4B / RFU, CREB1 / Fold change vs veh, CREB1 / RFU, DNAJC13 / Fold change vs veh, DNAJC13 / RFU, GNAQ / Fold change vs veh, GNAQ / RFU, CDK5R1 / Fold change vs veh, CDK5R1 / RFU, ZRANB3 / Fold change vs veh, ZRANB3 / RFU, CUL4A / Fold change vs veh, CUL4A / RFU, CCNY / Fold change vs veh, CCNY / RFU, UFL1 / Fold change vs veh, UFL1 / RFU, COG3 / Fold change vs veh, COG3 / RFU, DIAPH2 / Fold change vs veh, DIAPH2 / RFU, SKA2 / Fold change vs veh, SKA2 / RFU, AFF3 / Fold change vs veh, AFF3 / RFU, LMF1 / Fold change vs veh, LMF1 / RFU, IPO11 / Fold change vs veh, IPO11 / RFU, DFFB / Fold change vs veh, DFFB / RFU, FOXP1 / Fold change vs veh, FOXP1 / RFU, CARD8 / Fold change vs veh, CARD8 / RFU, STRN3 / Fold change vs veh, STRN3 / RFU, ADK / Fold change vs veh, ADK / RFU, RASSF2 / Fold change vs veh, RASSF2 / RFU, WIPF1 / Fold change vs veh, WIPF1 / RFU, LARP1B / Fold change vs veh, LARP1B / RFU, RASA1 / Fold change vs veh, RASA1 / RFU, RB1 / Fold change vs veh, RB1 / RFU, PPFIA1 / Fold change vs veh, PPFIA1 / RFU, MAT2A / Fold change vs veh, MAT2A / RFU, CCT5 / Fold change vs veh, CCT5 / RFU, WDR92 / Fold change vs veh, WDR92 / RFU, CUX1 / Fold change vs veh, CUX1 / RFU, TTC7A / Fold change vs veh, TTC7A / RFU, TMEM135 / Fold change vs veh, TMEM135 / RFU, DEPTOR / Fold change vs veh, DEPTOR / RFU, CPM / Fold change vs veh, CPM / RFU, DNAJB6 / Fold change vs veh, DNAJB6 / RFU, CACNA2D3 / Fold change vs veh, CACNA2D3 / RFU, DTX4 / Fold change vs veh, DTX4 / RFU, TFCP2 / Fold change vs veh, TFCP2 / RFU, GMCL1 /// GMCL1P1 / Fold change vs veh, GMCL1 /// GMCL1P1 / RFU, AEBP2 / Fold change vs veh, AEBP2 / RFU, SNHG1 /// SNORD22 /// SNORD25 /// SNORD26 /// SNORD27 /// SNORD28 /// SNORD29 /// SNORD31 / Fold change vs veh, SNHG1 /// SNORD22 /// SNORD25 /// SNORD26 /// SNORD27 /// SNORD28 /// SNORD29 /// SNORD31 / Fold change (Aza/veh), C12orf56 (ProbeSet 11735607_a_at) / Fold change (ACY-1035/veh), C12orf56 (ProbeSet 11735607_a_at) / Fold change (Aza/veh), FGFR1OP (ProbeSet 11751329_s_at) / Fold change (ACY-1035/veh), FGFR1OP (ProbeSet 11751329_s_at) / Fold change (Aza/veh), VPS36 (ProbeSet 11739960_a_at) / Fold change (ACY-1035/veh), VPS36 (ProbeSet 11739960_a_at) / RFU SYPL1 (11715823_x_at) / Fold change /veh SYPL1 (11715823_x_at) / RFU IGFBP7 (11715501_s_at) / Fold change /veh IGFBP7 (11715501_s_at) / RFU REEP3 (11722064_at) / Fold change /veh REEP3 (11722064_at) / RFU IGLL1 (11728026_x_at) / Fold change /veh IGLL1 (11728026_x_at): dose or concentration left out as unconfirmed
# Settings: ProbeSet 11727958_a_at; LIST B
smiles,measurement,value
Nc1ccc(-c2cccs2)cc1NC(=O)c1ccc2c(c1)cc(C1CC1)n2CCN1CCOCC1 [ACY-1035],"Fold change vs veh, ING1",1.02
